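Abbreviation: GI50, concentration required for 50% inhibition of growth. The concentration for full growth arrest is given as TGI.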
What was measured:
Assay in all cases: NCI-60 cell line screen, 384-well format; in the data active = GI50 below about 0.43 µM; inactive = the rest
786-0 renal = tested on: 786-0 renal
A498 renal = tested on: A498 renal
A549 NSCLC = tested on: A549 NSCLC
ACHN renal = tested on: ACHN renal
BT-549 breast = tested on: BT-549 breast
CAKI-1 renal = tested on: CAKI-1 renal
CCRF-CEM leukemia = tested on: CCRF-CEM leukemia
COLO 205 colon = tested on: COLO 205 colon
DU-145 prostate = tested on: DU-145 prostate
HCC-2998 colon = tested on: HCC-2998 colon
HCT-116 colon = tested on: HCT-116 colon
HCT-15 colon = tested on: HCT-15 colon
HL-60(TB) leukemia = tested on: HL-60(TB) leukemia
HOP-62 NSCLC = tested on: HOP-62 NSCLC
HOP-92 NSCLC = tested on: HOP-92 NSCLC
HT29 colon = tested on: HT29 colon
IGROV1 ovarian = tested on: IGROV1 ovarian
K-562 leukemia = tested on: K-562 leukemia
KM12 colon = tested on: KM12 colon
LOX IMVI melanoma = tested on: LOX IMVI melanoma
M14 melanoma = tested on: M14 melanoma
MALME-3M melanoma = tested on: MALME-3M melanoma
MCF7 breast = tested on: MCF7 breast
MDA-MB-231 breast = tested on: MDA-MB-231 breast
MDA-MB-435 melanoma = tested on: MDA-MB-435 melanoma
MDA-MB-468 breast = tested on: MDA-MB-468 breast
MOLT-4 leukemia = tested on: MOLT-4 leukemia
NCI-H226 lung = tested on: NCI-H226 lung
NCI-H23 lung = tested on: NCI-H23 lung
NCI-H322M lung = tested on: NCI-H322M lung
NCI-H460 NSCLC = tested on: NCI-H460 NSCLC
NCI-H522 lung = tested on: NCI-H522 lung
NCI/ADR-RES ovarian = tested on: NCI/ADR-RES ovarian
OVCAR-3 ovarian = tested on: OVCAR-3 ovarian
OVCAR-4 ovarian = tested on: OVCAR-4 ovarian
OVCAR-5 ovarian = tested on: OVCAR-5 ovarian
OVCAR-8 ovarian = tested on: OVCAR-8 ovarian
PC-3 prostate = tested on: PC-3 prostate
RPMI-8226 leukemia = tested on: RPMI-8226 leukemia
RXF 393 renal = tested on: RXF 393 renal
SF-268 CNS = tested on: SF-268 CNS
SF-295 CNS = tested on: SF-295 CNS
SF-539 CNS = tested on: SF-539 CNS
SK-MEL-2 melanoma = tested on: SK-MEL-2 melanoma
SK-MEL-28 melanoma = tested on: SK-MEL-28 melanoma
SK-MEL-5 melanoma = tested on: SK-MEL-5 melanoma
SK-OV-3 ovarian = tested on: SK-OV-3 ovarian
SN12C renal = tested on: SN12C renal
SNB-19 CNS = tested on: SNB-19 CNS
SR leukemia = tested on: SR leukemia
SW-620 colon = tested on: SW-620 colon
T-47D breast = tested on: T-47D breast
TK-10 renal = tested on: TK-10 renal
U251 glioblastoma = tested on: U251 glioblastoma
UACC-257 melanoma = tested on: UACC-257 melanoma
UACC-62 melanoma = tested on: UACC-62 melanoma
UO-31 renal = tested on: UO-31 renal

Cn1cc(S(=O)(=O)N2CCC3=Cc4c(cnn4-c4ccc(F)cc4)C[C@]3(C(=O)c3cc(C(F)(F)F)ccn3)C2)cn1
6.55 µM: TGI (MDA-MB-468 breast)
8.01 µM: TGI (RXF 393 renal)
4.6 µM: TGI (NCI-H23 lung)
55.7 µM: TGI (BT-549 breast)
inactive: GI50 ([…]-0 renal) 66 µM | GI50 (A498 renal) 12.5 µM | GI50 (A549 NSCLC) 8.76 µM | GI50 (ACHN renal) 31.6 µM | GI50 (BT-549 breast) 6.96 µM | GI50 (CAKI-1 renal) 25.6 µM | GI50 (CCRF-CEM leukemia) 4.73 µM | GI50 (COLO 205 colon) > 100 µM | GI50 (DU-145 prostate) > 100 µM | GI50 (HCC-2998 colon) > 100 µM | GI50 (HCT-116 colon) 3.29 µM | GI50 (HCT-15 colon) > 100 µM | GI50 (HL-60(TB) leukemia) 4.66 µM | GI50 (HOP-62 NSCLC) 5.17 µM | GI50 (HOP-92 NSCLC) 11.8 µM | GI50 (HT29 colon) > 100 µM | GI50 (IGROV1 ovarian) 14.1 µM | GI50 (K-562 leukemia) 3.27 µM | GI50 (KM12 colon) 46.6 µM | GI50 (LOX IMVI melanoma) 49 µM | GI50 (M14 melanoma) > 100 µM | GI50 (MALME-3M melanoma) 19.2 µM | GI50 (MCF7 breast) 8.88 µM | GI50 (MDA-MB-231 breast) 53.3 µM | GI50 (MDA-MB-435 melanoma) > 100 µM | GI50 (MDA-MB-468 breast) 1.84 µM | GI50 (MOLT-4 leukemia) 3.09 µM | GI50 (NCI-H226 lung) 20.3 µM | GI50 (NCI-H23 lung) 1.34 µM | GI50 (NCI-H322M lung) > 100 µM | GI50 (NCI-H460 NSCLC) 3.12 µM | GI50 (NCI-H522 lung) 3.19 µM | GI50 (NCI/ADR-RES ovarian) 7.38 µM | GI50 (OVCAR-3 ovarian) 9.32 µM | GI50 (OVCAR-4 ovarian) 3.97 µM | GI50 (OVCAR-5 ovarian) > 100 µM | GI50 (OVCAR-8 ovarian) 46.8 µM | GI50 (PC-3 prostate) 9.49 µM | GI50 (RPMI-8226 leukemia) 0.831 µM | GI50 (RXF 393 renal) 1.98 µM | GI50 (SF-268 CNS) > 100 µM | GI50 (SF-295 CNS) 11.5 µM | GI50 (SF-539 CNS) 54.3 µM | GI50 (SK-MEL-2 melanoma) 42.8 µM | GI50 (SK-MEL-28 melanoma) > 100 µM | GI50 (SK-MEL-5 melanoma) 7.3 µM | GI50 (SK-OV-3 ovarian) 5.8 µM | GI50 (SN12C renal) > 100 µM | GI50 (SNB-19 CNS) > 100 µM | GI50 (SR leukemia) 1.87 µM | GI50 (SW-620 colon) > 100 µM | GI50 (T-47D breast) 3.09 µM | GI50 (TK-10 renal) 78.8 µM | GI50 (U251 glioblastoma) 15.4 µM | GI50 (UACC-257 melanoma) 7.32 µM | GI50 (UACC-62 melanoma) 38.6 µM | GI50 (UO-31 renal) 11.8 µM
71.1 µM: TGI (MALME-3M melanoma)
12.9 µM: TGI (HL-60(TB) leukemia)
9.44 µM: TGI (MOLT-4 leukemia)
> 100 µM: TGI (786-0 renal) | TGI (A498 renal) | TGI (A549 NSCLC) | TGI (ACHN renal) | TGI (CAKI-1 renal) | TGI (CCRF-CEM leukemia) | TGI (COLO 205 colon) | TGI (DU-145 prostate) | TGI (HCC-2998 colon) | TGI (HCT-116 colon) | TGI (HCT-15 colon) | TGI (HOP-62 NSCLC) | TGI (HOP-92 NSCLC) | TGI (HT29 colon) | TGI (IGROV1 ovarian) | TGI (K-562 leukemia) | TGI (KM12 colon) | TGI (LOX IMVI melanoma) | TGI (M14 melanoma) | TGI (MCF7 breast) | TGI (MDA-MB-231 breast) | TGI (MDA-MB-435 melanoma) | TGI (NCI-H226 lung) | TGI (NCI-H322M lung) | TGI (NCI-H460 NSCLC) | TGI (NCI/ADR-RES ovarian) | TGI (OVCAR-3 ovarian) | TGI (OVCAR-4 ovarian) | TGI (OVCAR-5 ovarian) | TGI (OVCAR-8 ovarian) | TGI (PC-3 prostate) | TGI (SF-268 CNS) | TGI (SF-295 CNS) | TGI (SF-539 CNS) | TGI (SK-MEL-2 melanoma) | TGI (SK-MEL-28 melanoma) | TGI (SK-MEL-5 melanoma) | TGI (SK-OV-3 ovarian) | TGI (SN12C renal) | TGI (SNB-19 CNS) | TGI (SW-620 colon) | TGI (T-47D breast) | TGI (TK-10 renal) | TGI (U251 glioblastoma) | TGI (UACC-257 melanoma) | TGI (UACC-62 melanoma) | TGI (UO-31 renal)
3.1 µM: TGI (RPMI-8226 leukemia)
3.82 µM: TGI (SR leukemia)
81.2 µM: TGI (NCI-H522 lung)
